In brackets after ≈: the same amount, converted by molar mass. Read-outs that look alike come from different tables or passages of the source.
Columns and labels:
[1] = target: E. coli Uridine-diphosphate-N-acetvimuramoyl: L-alanine lipase, MurC (Escherichia coli, UniProt P17952); assay: Inhibitory activity against MurC (E. coli); format: biochemical; details: (E) E. coli enzyme; for IC50: read-out: MurC IC50 (converted)
Protocol: S. aureus and E. coli Uridine-diphosphate-N-acetvimuramoyl: L-alanine lipase, MurC
The buffer is prepared from aqueous reagents with the following final concentrations: 83 mM Tris/HCl (pH 8.0), 50 mM MgC12, and 2 mM ATP.
(§1) Preparation of Enzyme Solution:
A 1 mg/mL stock solution of MurC is prepared in a buffer consisting of 20 mM Tris/HCl (pH 8.5) with 2.5 μM BME. The stock solution is further diluted with the buffer to give a final enzyme concentration of 100 μg/mL for the E. coli stock solution and 70 μg/mL for the S. aureus stock solution.
(§2) Preparation of Test Compound Solutions:
(§3) All test solutions are prepared in DMSO as 10 mg/mL, then diluted with 50 mM Tris/HCl (pH 8.5) to 100 μg/mL.
(§4) Preparation of Stop Solution:
The stop solution is prepared by stirring 1 part 4.2% ammonium molydbate in 4N HCl with 2 parts 0.045% malachite green for 30 min.
In this evaluation, the inhibitory activity of a test compound against MurC, the enzyme which catalyzes the third step of bacterial cell wall bioxynthesis is determined. Experiments are performed by adding 2.5 μl buffer, 2.5 μl 0.5M NH4SO2, 5 μl 2 μM L-Ala, 5 μl enzyme solution and 6.5 μl test compound solution to each well in a 96-well microplate. After a pre-incubation period of 10 mins. at 23° C., 3.75 μl of a 0.75 μM solution of UDP-MurNac is added to each well. Following an incubation period of 10 mins. at 37° C., 210 μl stop solution and 50 μl of a 34% w/v sodium citrate solution are added and color is allowed to develop for 10 mins. at 23° C. (Lanzetta et al., Analytical Biochemistry, 1979, 95) Optical density readings are taken at 660 nm using a Molecular Devices Spectra Max 250 with Soft Max software. Controls are performed using the same procedure and omitting the addition of UDP-MurNac.
Using these values the IC50 is determined by linear regression analysis.

[2] = target: E. coli UDP-N-acetylglucosamine enolpyruvoyl transferase, MurA (Escherichia coli, UniProt P0A749); assay: biochemical; details: (E) E. coli enzyme
Sequence of E. coli UDP-N-acetylglucosamine enolpyruvoyl transferase, MurA (P0A749 whole entry): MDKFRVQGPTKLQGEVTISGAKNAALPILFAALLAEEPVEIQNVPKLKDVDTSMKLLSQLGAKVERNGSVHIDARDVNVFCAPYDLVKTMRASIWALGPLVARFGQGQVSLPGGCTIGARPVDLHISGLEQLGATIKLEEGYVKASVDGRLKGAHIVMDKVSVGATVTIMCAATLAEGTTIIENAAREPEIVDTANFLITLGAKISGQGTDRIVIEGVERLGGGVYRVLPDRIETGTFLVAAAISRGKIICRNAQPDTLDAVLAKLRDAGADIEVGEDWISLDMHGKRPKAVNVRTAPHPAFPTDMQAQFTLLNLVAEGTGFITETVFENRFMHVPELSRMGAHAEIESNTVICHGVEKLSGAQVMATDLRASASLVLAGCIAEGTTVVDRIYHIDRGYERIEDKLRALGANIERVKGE
Protocol: Evaluation of the Inhibitory Activity of Test Compounds Against Enzymes which Catalyze Bacterial Cell Wall Biosynthesis
S. aureus and E. coli UDP-N-acetylglucosamine enolpyruvoyl transferase, MurA
as §1
The enzyme solution is prepared by admixing the following: 50 mM Tris/HCl pH 8.0, […] 1 M Tris, 5 mM DTT, […] 1 M DTT, 20% Glycerol 4 ml 50% Glycerol, add water to 10 ml.
as §4
A procedure similar to that described by C. […] Experiments are performed by adding a solution of test compound (in a mixture of dimethylsulfoxide and water) and an enzyme solution to a well. After a pre-incubation period of 10 mintues at 37° C., Tris/BME buffer and assay buffer are added. A start point optical density (OD0) reading is taken at 340 nm immediately following the addition of assay buffer. After incubation for 1 hr at 37° C., the stop solution is added and the color is allowed to develop for 30 minutes.

[3] = target: E. coli Enopyruvyl-UPD-N-acetylglucosamine reductase, Mur B (Escherichia coli, UniProt P08373); assay: biochemical; details: (E) E. coli enzyme; for IC50: read-out: MurB IC50 (converted)
Sequence of E. coli Enopyruvyl-UPD-N-acetylglucosamine reductase, Mur B (P08373 whole entry): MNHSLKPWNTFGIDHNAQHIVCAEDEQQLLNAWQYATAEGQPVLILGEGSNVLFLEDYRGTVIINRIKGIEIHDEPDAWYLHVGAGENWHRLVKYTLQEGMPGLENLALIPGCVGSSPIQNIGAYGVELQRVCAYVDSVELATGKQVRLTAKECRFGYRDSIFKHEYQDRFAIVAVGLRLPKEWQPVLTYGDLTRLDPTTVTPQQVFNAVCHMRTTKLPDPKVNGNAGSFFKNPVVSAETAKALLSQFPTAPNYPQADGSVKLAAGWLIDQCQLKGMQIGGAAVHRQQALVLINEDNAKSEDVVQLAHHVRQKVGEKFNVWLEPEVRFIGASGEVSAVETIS
Protocol: S. aureus and E. coli Enopyruvyl-UPD-N-acetylglucosamine reductase, Mur B
Preparation of Tris/BME buffer:
Dilute 17.5 uL of aqueous 5 mM BME (2-mercaptoethanol) to 50 mL with 50 mM Tris/HCl (pH 8.0).
as §1
Dilute aqueous MurB stock solution (0.94 mg/mL) with 200 parts 50 mM Tris/2-BME buffer.
Synthesis of Substrate for MurB (MurA Product EP-UDP-GluNAc):
A mixture of 13 mg UDP-N-acetylglucosamine and 5.5 mg phosphoenolpyruvate are dissolved in 10 mL Tris/BME buffer forming 2 mM concentrations of each reagent in solution.
Preparation of Assay Buffer:
The assay buffer is prepared in water from reagents with the following final concentrations: 100 mM Tris/HCl (pH 8.0), 200 μM NADPH, 100 μM MurB substrate, 10 μM 2-mercaptoethanol, and 10 μM KCl.
Experiments are performed by adding 20 μL of a solution of test compound in a mixture of dimethylsulfoxide and water and 30 μL of enzyme solution to a well. After a pre-incubation period of 20 mins. at 23° C., 50 μL of Tris/BME buffer and 100 μL of assay buffer are added. […] Controls are performed using the same procedure and employing 20 μL of a blank dimethylsulfonide and solvent mixture in place of the test compound solution.
Using these values, the IC50 for each test compound is determined by linear regression analysis.

Streptococci = assay: Minimum inhibitory concentration, microdilution broth method, streptococci; format: cell-based; details: S. pneumo GC 1894; Mueller-Hinton broth with 5% horse blood, 18-22 hours at 35° C.
Protocol: (§5) Evaluation of the Minimum Inhibitory Concentration of Test Compounds Against A Variety of Bacterial Strains
(§6) In this evaluation the minimal inhibitory concentration (MIC) of test compounds against Gram positive and Gram negative bacteria is performed using the microdilution broth method as recommended by the National Committee for Clinical Laboratory Standards (Approved Standards M7-A5 2000). Mueller-Hinton broth is used for the enterobacteriaceae, staphylococci and enterococci. Streptococci are also tested in Mueller-Hinton broth supplemented with 5% horse blood (LHB). Test organisms include recent clinical isolates that are resistant to methicillin, penicillin and/or vancomycin. […].

enterococci = assay: Minimum inhibitory concentration, microdilution broth method, enterococci; format: cell-based; details: Enterococcus faecalis, Mueller-Hinton broth, 18-22 hours at 35° C.
Protocol: as §5, §6

staphylococci = assay: Minimum inhibitory concentration, microdilution broth method, staphylococci; format: cell-based; details: Staphylococcus aureus, Mueller-Hinton broth, 18-22 hours at 35° C.
Protocol: as §5, §6

[4] = target: T1, S. aureus Uridine-diphosphate-N-acetylmuramoyl-L-alanine: D-glutamate liease, MurD (Staphylococcus aureus, UniProt Q2FZ92); assay: biochemical; details: (S) S. aureus enzyme
T1 sequence (Q2FZ92 1-449): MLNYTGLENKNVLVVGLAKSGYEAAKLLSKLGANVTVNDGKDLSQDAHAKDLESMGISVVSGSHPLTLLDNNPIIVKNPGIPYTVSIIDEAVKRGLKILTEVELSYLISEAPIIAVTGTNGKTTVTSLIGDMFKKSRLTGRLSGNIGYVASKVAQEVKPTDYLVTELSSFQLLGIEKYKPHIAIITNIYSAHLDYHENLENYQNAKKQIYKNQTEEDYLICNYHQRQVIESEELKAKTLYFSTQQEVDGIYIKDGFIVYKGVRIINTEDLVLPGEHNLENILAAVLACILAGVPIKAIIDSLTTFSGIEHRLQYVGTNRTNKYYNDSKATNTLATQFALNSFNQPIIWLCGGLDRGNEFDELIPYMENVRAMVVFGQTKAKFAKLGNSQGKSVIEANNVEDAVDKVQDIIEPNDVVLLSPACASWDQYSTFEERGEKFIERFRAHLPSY
Protocol: (§7) S. aureus and E. coli Uridine-diphosphate-N-acetylmuramoyl-L-alanine: D-glutamate liease, MurD
as §1, §2, §3, §4
(§8) In this evaluation, the inhibitory activity of a test compound against MurD, the enzyme which catalyzes the fourth step of bacterial cell wall biosynthesis is determined.

[5] = target: E. coli Uridine-diphosphate-N-acetylmuramoyl-L-alanine: D-glutamate liease, MurD (Escherichia coli, UniProt P14900); assay: biochemical; details: (E) E. coli enzyme
Sequence of E. coli Uridine-diphosphate-N-acetylmuramoyl-L-alanine: D-glutamate liease, MurD (P14900 whole entry): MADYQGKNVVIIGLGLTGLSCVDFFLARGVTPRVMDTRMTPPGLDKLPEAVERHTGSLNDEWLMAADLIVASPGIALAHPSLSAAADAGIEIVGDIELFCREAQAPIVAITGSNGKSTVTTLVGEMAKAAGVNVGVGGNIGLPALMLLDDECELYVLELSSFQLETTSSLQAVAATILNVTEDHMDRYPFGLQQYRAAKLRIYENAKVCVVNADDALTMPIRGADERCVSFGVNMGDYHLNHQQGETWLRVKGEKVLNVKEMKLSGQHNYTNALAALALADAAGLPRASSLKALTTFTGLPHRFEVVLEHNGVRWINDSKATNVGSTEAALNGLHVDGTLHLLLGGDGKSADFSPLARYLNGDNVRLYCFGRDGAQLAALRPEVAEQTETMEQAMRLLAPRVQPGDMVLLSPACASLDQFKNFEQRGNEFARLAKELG
Protocol: as §7
The buffer is prepared from aqueous reagents with the following final concentrations: 83 mM Tris/HCl (pH 8.0), 50 mM MgCl2, and 2 mM ATP.
as §1, §2, §3, §4, §8

[6] = E. faecalis GC 2242, read-out: MIC E. faecalis GC 2242
[7] = E. faecalis GC 4555, read-out: MIC E. faecalis GC 4555
[8] = S. aureus GC 1131, read-out: MIC S. aureus GC 1131
[9] = S. aureus GC 4543, read-out: MIC S. aureus GC 4543

Sequence of E. coli Uridine-diphosphate-N-acetvimuramoyl: L-alanine lipase, MurC (P17952 whole entry): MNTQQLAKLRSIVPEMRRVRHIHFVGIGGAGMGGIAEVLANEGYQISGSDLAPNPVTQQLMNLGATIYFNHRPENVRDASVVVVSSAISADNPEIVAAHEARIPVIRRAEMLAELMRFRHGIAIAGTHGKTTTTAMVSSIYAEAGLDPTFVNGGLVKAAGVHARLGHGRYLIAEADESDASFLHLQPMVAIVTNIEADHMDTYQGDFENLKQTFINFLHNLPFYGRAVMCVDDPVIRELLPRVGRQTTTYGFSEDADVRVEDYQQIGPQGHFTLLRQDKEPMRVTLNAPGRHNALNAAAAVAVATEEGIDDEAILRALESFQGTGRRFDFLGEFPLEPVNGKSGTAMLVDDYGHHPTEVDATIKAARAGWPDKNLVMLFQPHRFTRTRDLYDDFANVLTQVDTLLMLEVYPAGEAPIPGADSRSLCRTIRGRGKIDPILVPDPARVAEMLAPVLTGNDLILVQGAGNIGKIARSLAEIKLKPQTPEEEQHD

Row | SMILES | IC50 [1] [µM] | IC50 [2] [µM] | IC50 [3] [µM] | MIC (Streptococci) [µg/mL] | MIC (enterococci; [6]) [µg/mL] | MIC (enterococci; [7]) [µg/mL] | MIC (staphylococci; [8]) [µg/mL] | MIC (staphylococci; [9]) [µg/mL] | MurC IC50 [1] | IC50 [4] [µM] | MurB IC50 [3] | MurA IC50 [2] | IC50 [5] [µM]
1 | O=C1O/C(=C\c2cc(C(F)(F)F)ccc2F)C(O)=C1c1cccc(-c2ccccc2)c1 [Example 121] | 21.1 | 21.1 | 16.4 | 0.5 (≈ 1.17 µM) | 8 (≈ 18.8 µM) | 16 (≈ 37.5 µM) | 4 (≈ 9.38 µM) | 2 (≈ 4.69 µM) |  |  |  |  | 
2 | O=C1O/C(=C\c2ccc(-c3ccccc3)cc2)C(O)=C1c1ccc2ccccc2c1 [Example 45] |  |  |  | 2 (≈ 5.12 µM) | 4 (≈ 10.2 µM) | 8 (≈ 20.5 µM) | 16 (≈ 41 µM) | 4 (≈ 10.2 µM) | 10 (E) μg/mL | > 64 | 2 (E) μg/mL |  | 
3 | O=C1O/C(=C\c2ccc3ccccc3c2)C(O)=C1c1cccc(C(F)(F)F)c1 [Example 8] |  |  |  | 0.25 (≈ 0.654 µM) | 4 (≈ 10.5 µM) | 16 (≈ 41.8 µM) | 8 (≈ 20.9 µM) | 8 (≈ 20.9 µM) | 6 (E) μg/mL |  | 11 (E) μg/mL |  | 
4 | O=C1O/C(=C\c2ccc(Cl)cc2)C(O)=C1c1ccc(-c2ccccc2)cc1 [Example 139] |  |  | 16 | 1 (≈ 2.67 µM) | 4 (≈ 10.7 µM) | 8 (≈ 21.3 µM) | 16 (≈ 42.7 µM) | 16 (≈ 42.7 µM) | 16 (E) μg/mL |  |  |  | 
5 | O=C1O/C(=C\c2cccc(C(F)(F)F)c2)C(O)=C1c1ccc(-c2ccccc2)cc1 [Example 130] |  |  | 22 | 0.5 (≈ 1.22 µM) | 8 (≈ 19.6 µM) | 4 (≈ 9.79 µM) | 4 (≈ 9.79 µM) | 4 (≈ 9.79 µM) | 8 (E) μg/mL |  |  | 17 (E) μg/mL | 
6 | O=C1O/C(=C\c2cccc(C(F)(F)F)c2)C(O)=C1c1cccc2ccccc12 [Example 48] |  |  |  | 8 (≈ 20.9 µM) | 32 (≈ 83.7 µM) | > 128 | 32 (≈ 83.7 µM) | 64 (≈ 167 µM) | 13 (E) μg/mL |  |  |  | 
7 | O=C1O/C(=C\c2cc(F)cc(C(F)(F)F)c2)C(O)=C1c1cccc(-c2ccccc2)c1 [Example 109] | 23.5 |  | 9.38 | 0.25 (≈ 0.586 µM) | 1 (≈ 2.35 µM) | 4 (≈ 9.38 µM) | 2 (≈ 4.69 µM) | 2 (≈ 4.69 µM) |  |  |  |  | > 58.6

Reference: patent publication US7495027B2, “3-aryl-4-hydroxyfuranone compounds and the human and animal health use thereof” (Wyeth, priority 2003, dated 2009)
